Tests used:
[1] = tested on: blackgrass; experiment: Test Example 5: herbicidal effect by foliage application, plastic box (Table 20, symbol J); type: in vivo, blackgrass (Alopecurus myosuroides); details: 320 g/ha, foliage application after 14-day growth, evaluated three weeks after application
Summary of the method: (§1)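 Foliar spray test: emulsion formulation diluted in water to a set application rate, sprayed onto 14-day-old plants raised in diluvial soil at 25° C to 30° C under glass. Both herbicidal effect and crop effect rated visually three weeks later.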

[2] = tested on: late watergrass; experiment: Test Example 2: herbicidal activity, application during weed generation under submerged conditions (Table 17, symbol A); type: in vivo, late watergrass (Echinochloa oryzicola); details: AAH 320 g/ha; application during weed generation, submerged conditions
Summary of the method: (§2)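 Effect on each weed is rated three weeks post-treatment, using the same scoring criteria as the preceding test. Plants grow from mixed-sown seed in flooded alluvial soil (4 cm water) at 25° C. to 30° C., and are treated at one to two leaves with diluted emulsion dropped onto the water.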

[3] = tested on: oval-leafed pondweed; experiment: Test Example 2: herbicidal activity, application during weed generation under submerged conditions (Table 17, symbol C); type: in vivo, oval-leafed pondweed (Monochoria vaginalis); details: AAH 320 g/ha; application during weed generation, submerged conditions
Summary of the method: as §2

[4] = tested on: chickweed; experiment: Test Example 5: herbicidal effect by foliage application, plastic box (Table 20, symbol P); type: in vivo, common chickweed (Stellaria media); details: 320 g/ha, foliage application after 14-day growth, evaluated three weeks after application
Summary of the method: as §1

[5] = tested on: Italian ryegrass; experiment: Test Example 5: herbicidal effect by foliage application, plastic box (Table 20, symbol K); type: in vivo, Italian ryegrass (Lolium multiflorum); details: 320 g/ha, foliage application after 14-day growth, evaluated three weeks after application
Summary of the method: as §1

[6] = tested on: velvetleaf; experiment: Test Example 5: herbicidal effect by foliage application, plastic box (Table 20, symbol M); type: in vivo, velvetleaf (Abutilon theophrasti); details: 320 g/ha, foliage application after 14-day growth, evaluated three weeks after application
Summary of the method: as §1

[7] = tested on: barnyard grass; experiment: Test Example 3: herbicidal effect by foliage application, Wagner pot (Table 18, symbol H); type: in vivo, barnyard grass (Echinochloa crus-galli); details: 320 g/ha
Summary of the method: (§3)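 Plants were sown in alluvial soil held under 0.1–0.5 cm standing water and grown 14 days in a greenhouse at 25–30 °C. An emulsifiable formulation, water-diluted to the set dose, was then sprayed onto the foliage, and effects were scored three weeks later using previously defined criteria.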

[8] = tested on: southern crabgrass; experiment: Test Example 5: herbicidal effect by foliage application, plastic box (Table 20, symbol F); type: in vivo, southern crabgrass (Digitaria ciliaris); details: 320 g/ha, foliage application after 14-day growth, evaluated three weeks after application
Summary of the method: as §1

[9] = tested on: redroot pigweed; experiment: Test Example 5: herbicidal effect by foliage application, plastic box (Table 20, symbol N); type: in vivo, redroot pigweed (Amaranthus retroflexus); details: 320 g/ha, foliage application after 14-day growth, evaluated three weeks after application
Summary of the method: as §1

[10] = tested on: rice flat sedge; experiment: Test Example 3: herbicidal effect by foliage application, Wagner pot (Table 18, symbol E); type: in vivo, rice flat sedge (Cyperus iria); details: 320 g/ha
Summary of the method: as §3

[11] = tested on: Japanese bulrush; experiment: Test Example 2: herbicidal activity, application during weed generation under submerged conditions (Table 17, symbol B); type: in vivo, Japanese bulrush (Schoenoplectus juncoides); details: AAH 320 g/ha; application during weed generation, submerged conditions
Summary of the method: as §2

[12] = tested on: green foxtail; experiment: Test Example 5: herbicidal effect by foliage application, plastic box (Table 20, symbol G); type: in vivo, green foxtail (Setaria viridis); details: 320 g/ha, foliage application after 14-day growth, evaluated three weeks after application
Summary of the method: as §1

[13] = tested on: Chinese sprangletop; experiment: Test Example 3: herbicidal effect by foliage application, Wagner pot (Table 18, symbol D); type: in vivo, chinese sprangletop (Leptochloa chinensis); details: 320 g/ha
Summary of the method: as §3

[14] = tested on: lambsquarters; experiment: Test Example 5: herbicidal effect by foliage application, plastic box (Table 20, symbol O); type: in vivo, lambsquarters (Chenopodium album); details: 320 g/ha, foliage application after 14-day growth, evaluated three weeks after application
Summary of the method: as §1

[15] = tested on: persian speedwell; experiment: Test Example 5: herbicidal effect by foliage application, plastic box (Table 20, symbol R); type: in vivo, Persian speedwell (Veronica persica); details: 320 g/ha, foliage application after 14-day growth, evaluated three weeks after application
Summary of the method: as §1

[16] = tested on: wild oat; experiment: Test Example 5: herbicidal effect by foliage application, plastic box (Table 20, symbol I); type: in vivo, wild oat (Avena fatua); details: 320 g/ha, foliage application after 14-day growth, evaluated three weeks after application
Summary of the method: as §1

[17] = tested on: windgrass; experiment: Test Example 5: herbicidal effect by foliage application, plastic box (Table 20, symbol L); type: in vivo, windgrass (Apera spica-venti); details: 320 g/ha, foliage application after 14-day growth, evaluated three weeks after application
Summary of the method: as §1

[18] = tested on: barnyard grass; experiment: Test Example 5: herbicidal effect by foliage application, plastic box (Table 20, symbol H); type: in vivo, barnyard grass (Echinochloa crus-galli); details: 320 g/ha, foliage application after 14-day growth, evaluated three weeks after application
Summary of the method: as §1

CCCC(=O)Oc1c(C)nn(C)c(=O)c1-c1c(-c2ccc(C(F)(F)F)cc2F)sc2c(Cl)cccc12 [4-038]
herbicidal effect on J: blackgrass (evaluation grade 0-5) [1]: 0 (Herbicidal rate of 5% or less (almost no effect))
herbicidal effect rating, A: late watergrass [2]: 2 (Herbicidal rate of 20% or more and less than 40%)
herbicidal effect rating, C: oval-leafed pondweed [3]: 0 (Herbicidal rate of 5% or less (almost no effect))
herbicidal effect on P: chickweed (evaluation grade 0-5) [4]: 4 (Herbicidal rate of 70% or more and less than 90%)
herbicidal effect on K: Italian ryegrass (evaluation grade 0-5) [5]: 4 (Herbicidal rate of 70% or more and less than 90%)
herbicidal effect on M: velvetleaf (evaluation grade 0-5) [6]: 0 (Herbicidal rate of 5% or less (almost no effect))
herbicidal effect on barnyard grass (H) [7]: 4 (Herbicidal rate of 70% or more and less than 90%)
herbicidal effect on F: southern crabgrass (evaluation grade 0-5) [8]: 0 (Herbicidal rate of 5% or less (almost no effect))
herbicidal effect on N: redroot pigweed (evaluation grade 0-5) [9]: 0 (Herbicidal rate of 5% or less (almost no effect))
herbicidal effect on rice flat sedge (E) [10]: 4 (Herbicidal rate of 70% or more and less than 90%)
herbicidal effect rating, B: Japanese bulrush [11]: 3 (Herbicidal rate of 40% or more and less than 70%)
herbicidal effect on G: green foxtail (evaluation grade 0-5) [12]: 0 (Herbicidal rate of 5% or less (almost no effect))
herbicidal effect on Chinese sprangletop (D) [13]: 5 (Herbicidal rate of 90% or more (almost completely withered))
herbicidal effect on O: lambsquarters (evaluation grade 0-5) [14]: 0 (Herbicidal rate of 5% or less (almost no effect))
herbicidal effect on R: persian speedwell (evaluation grade 0-5) [15]: 4 (Herbicidal rate of 70% or more and less than 90%)
herbicidal effect on I: wild oat (evaluation grade 0-5) [16]: 2 (Herbicidal rate of 20% or more and less than 40%)
herbicidal effect on L: windgrass (evaluation grade 0-5) [17]: 5 (Herbicidal rate of 90% or more (almost completely withered))
herbicidal effect on H: barnyard grass (evaluation grade 0-5) [18]: 0 (Herbicidal rate of 5% or less (almost no effect))

Source: patent US20230085307A1, “PYRIDAZINONE COMPOUND AND HERBICIDE” (NISSAN CHEMICAL CORPORATION, priority 2019, published 2023)
